Reference: ChEMBL document CHEMBL1201862, “PubChem BioAssay data set” (2004)
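Results reflect a 48-hour exposure of cells in 96-well plates to compound at five concentrations. GI50 is the concentration that inhibits growth by half.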 Activity calls are given as the source filed them. Cut-off read from the data, not from the text of the source: active = GI50 up to about 1.1 µM and inactive = higher.

Key:
Test in all cases: NCI anticancer screen, dose series, 48 h
A549 = tested on: A549
CAKI-1 = tested on: CAKI-1
CCRF-CEM = tested on: CCRF-CEM
COLO 205 = tested on: COLO 205
DU-145 = tested on: DU-145
Hs-578T = tested on: Hs-578T
IGROV-1 = tested on: IGROV-1
KM12 = tested on: KM12
LOX IMVI = tested on: LOX IMVI
MDA-MB-231 = tested on: MDA-MB-231
NCI-H23 = tested on: NCI-H23
OVCAR-4 = tested on: OVCAR-4
OVCAR-8 = tested on: OVCAR-8
SK-MEL-2 = tested on: SK-MEL-2
SN12C = tested on: SN12C
SNB-19 = tested on: SNB-19
UACC-62 = tested on: UACC-62
UO-31 = tested on: UO-31
HOP-92 = tested on: HOP-92
Malme-3M = tested on: Malme-3M

| Structure (SMILES) | GI50 (A549) | GI50 (CAKI-1) | GI50 (CCRF-CEM) | GI50 (COLO 205) | GI50 (DU-145) | GI50 (Hs-578T) | GI50 (IGROV-1) | GI50 (KM12) | GI50 (LOX IMVI) | GI50 (MDA-MB-231) | GI50 (NCI-H23) | GI50 (OVCAR-4) | GI50 (OVCAR-8) | GI50 (SK-MEL-2) | GI50 (SN12C) | GI50 (SNB-19) | GI50 (UACC-62) | GI50 (UO-31) | GI50 (HOP-92) | GI50 (Malme-3M) |
| --- | --- | --- | --- | --- | --- | --- | --- | --- | --- | --- | --- | --- | --- | --- | --- | --- | --- | --- | --- | --- |
| Nc1ccc2nc(N)n[n+]([O-])c2c1 | > 100 µM (inactive) | > 100 µM (inactive) | > 100 µM (inactive) | > 100 µM (inactive) | > 100 µM (inactive) | > 100 µM (inactive) | > 100 µM (inactive) | > 100 µM (inactive) | > 100 µM (inactive) | > 100 µM (inactive) | > 100 µM (inactive) | > 100 µM (inactive) | > 100 µM (inactive) | > 100 µM (inactive) | > 100 µM (inactive) | > 100 µM (inactive) | > 100 µM (inactive) | > 100 µM (inactive) | – | – |
| CCOC(=O)CSc1nc(-c2ccc(Cl)cc2)c(C#N)c(=O)[nH]1 | > 100 µM (inactive) | > 100 µM (inactive) | 41.1 µM (inactive) | > 100 µM (inactive) | > 100 µM (inactive) | > 100 µM (inactive) | > 100 µM (inactive) | > 100 µM (inactive) | – | 50.6 µM (inactive) | > 100 µM (inactive) | > 100 µM (inactive) | > 100 µM (inactive) | > 100 µM (inactive) | > 100 µM (inactive) | 74.8 µM (inactive) | 92 µM (inactive) | 77.3 µM (inactive) | 42.3 µM (inactive) | – |
| O=C(NCCCCCCNC(=O)c1cc(-c2ccccc2)nc2ccccc12)c1cc(-c2ccccc2)nc2ccccc12 | > 100 µM (inactive) | > 100 µM (inactive) | > 100 µM (inactive) | > 100 µM (inactive) | > 100 µM (inactive) | 40.6 µM (inactive) | 34.8 µM (inactive) | – | > 100 µM (inactive) | > 100 µM (inactive) | > 100 µM (inactive) | > 100 µM (inactive) | > 100 µM (inactive) | – | > 100 µM (inactive) | > 100 µM (inactive) | > 100 µM (inactive) | > 100 µM (inactive) | > 100 µM (inactive) | > 100 µM (inactive) |
| C/N=c1/oc2ccccc2cc1C(N)=O | > 100 µM (inactive) | > 100 µM (inactive) | > 100 µM (inactive) | > 100 µM (inactive) | > 100 µM (inactive) | 16.9 µM (inactive) | 53.3 µM (inactive) | > 100 µM (inactive) | > 100 µM (inactive) | > 100 µM (inactive) | > 100 µM (inactive) | – | > 100 µM (inactive) | > 100 µM (inactive) | > 100 µM (inactive) | 56.4 µM (inactive) | 64.1 µM (inactive) | 58.2 µM (inactive) | > 100 µM (inactive) | – |
| Cc1ccc(Cl)c2c(=O)c3ccc(N)cc3sc12 | 24.9 µM (inactive) | 24.9 µM (inactive) | 14.7 µM (inactive) | 16.6 µM (inactive) | 26.1 µM (inactive) | 10.4 µM (inactive) | 10 µM (inactive) | 14.7 µM (inactive) | – | 22.2 µM (inactive) | 23.9 µM (inactive) | – | 13.2 µM (inactive) | 20.1 µM (inactive) | 15.7 µM (inactive) | 27.9 µM (inactive) | 14.9 µM (inactive) | 13.9 µM (inactive) | – | – |
| O=C(CCl)Nc1cc(Cl)c(Cl)cc1Cl | 2.35 µM (inactive) | 2.96 µM (inactive) | 0.966 µM (active) | 1.85 µM (inactive) | 3.16 µM (inactive) | 3.4 µM (inactive) | 1.81 µM (inactive) | 0.307 µM (active) | 1.56 µM (inactive) | 1.56 µM (inactive) | 1.7 µM (inactive) | 2.27 µM (inactive) | 1.73 µM (inactive) | 1.64 µM (inactive) | 1.52 µM (inactive) | 2.27 µM (inactive) | 1.93 µM (inactive) | – | – | 1.41 µM (inactive) |
| O=C1C(Cl)=C(N(C(=O)c2ccccc2)C(=O)c2ccccc2)C(=O)c2ccccc21 | 16.4 µM (inactive) | 10.5 µM (inactive) | 2.84 µM (inactive) | 16.1 µM (inactive) | > 100 µM (inactive) | 4.8 µM (inactive) | 19.4 µM (inactive) | 3.38 µM (inactive) | 25.6 µM (inactive) | 9.71 µM (inactive) | 5.42 µM (inactive) | – | 54 µM (inactive) | 11.4 µM (inactive) | 18.3 µM (inactive) | 26.6 µM (inactive) | 5.12 µM (inactive) | 3.39 µM (inactive) | 13.1 µM (inactive) | – |
| Cc1cccc(-c2cc(O)c3cccnc3n2)c1 | 1.34 µM (inactive) | – | 0.935 µM (active) | 0.236 µM (active) | 3.94 µM (inactive) | 0.444 µM (active) | 0.914 µM (active) | 0.173 µM (active) | 0.512 µM (active) | 2.09 µM (inactive) | 2.79 µM (inactive) | 24 µM (inactive) | 1.35 µM (inactive) | – | 2.75 µM (inactive) | 1.69 µM (inactive) | 0.292 µM (active) | > 100 µM (inactive) | 88.3 µM (inactive) | – |
| c1ccc(C(=NNc2nc3ccccc3[nH]2)c2ccccn2)nc1 | 0.3 µM (active) | 0.102 µM (active) | 0.0313 µM (active) | 0.0257 µM (active) | 0.268 µM (active) | 7.53 µM (inactive) | 0.112 µM (active) | 0.298 µM (active) | 0.172 µM (active) | 0.166 µM (active) | 0.24 µM (active) | 0.0592 µM (active) | 0.0993 µM (active) | 12.9 µM (inactive) | 0.128 µM (active) | 0.33 µM (active) | 0.222 µM (active) | 0.0847 µM (active) | 0.0232 µM (active) | – |
| CSc1c(C#N)c(=O)[nH]c2[nH]nc(C)c12 | > 100 µM (inactive) | 22.1 µM (inactive) | > 100 µM (inactive) | > 100 µM (inactive) | > 100 µM (inactive) | > 100 µM (inactive) | – | > 100 µM (inactive) | > 100 µM (inactive) | > 100 µM (inactive) | > 100 µM (inactive) | > 100 µM (inactive) | > 100 µM (inactive) | > 100 µM (inactive) | > 100 µM (inactive) | > 100 µM (inactive) | > 100 µM (inactive) | > 100 µM (inactive) | – | > 100 µM (inactive) |
| O=C1CC(Cl)c2c1csc2Br (configuration not stated) | 19 µM (inactive) | 5.61 µM (inactive) | 2.65 µM (inactive) | 15.2 µM (inactive) | 29.4 µM (inactive) | 21.6 µM (inactive) | 16.5 µM (inactive) | 13.2 µM (inactive) | 14.1 µM (inactive) | – | 15.3 µM (inactive) | 25.9 µM (inactive) | 16.3 µM (inactive) | 15.1 µM (inactive) | 17.6 µM (inactive) | 17.5 µM (inactive) | 15.3 µM (inactive) | 8.93 µM (inactive) | 21.5 µM (inactive) | 15.7 µM (inactive) |
| c1ccc(Nc2nnc(Cn3ccc4ccccc43)s2)cc1 | 32.4 µM (inactive) | 22.4 µM (inactive) | 49.3 µM (inactive) | 45.1 µM (inactive) | 92.9 µM (inactive) | 65.6 µM (inactive) | 46.9 µM (inactive) | 34.5 µM (inactive) | 56 µM (inactive) | 38.3 µM (inactive) | > 100 µM (inactive) | 36.8 µM (inactive) | 64.6 µM (inactive) | > 100 µM (inactive) | > 100 µM (inactive) | 60 µM (inactive) | 88.5 µM (inactive) | 36.4 µM (inactive) | 54.7 µM (inactive) | – |
| CCCCCCCCCCCCCCCCCCNc1ccn(C2OC(COP(=O)(O)OCC3CCC(n4cnc5c(=O)[nH]cnc54)O3)C(O)C2O)c(=O)n1 (configuration not stated) | > 100 µM (inactive) | > 100 µM (inactive) | 29.3 µM (inactive) | > 100 µM (inactive) | > 100 µM (inactive) | > 100 µM (inactive) | 84.1 µM (inactive) | > 100 µM (inactive) | > 100 µM (inactive) | – | > 100 µM (inactive) | > 100 µM (inactive) | > 100 µM (inactive) | > 100 µM (inactive) | > 100 µM (inactive) | > 100 µM (inactive) | > 100 µM (inactive) | > 100 µM (inactive) | > 100 µM (inactive) | > 100 µM (inactive) |
| COC(=O)CCc1ccc2c(c1)CC1(C2)Cc2ccc3c(c2C1)CCC3 (configuration not stated) | 53.5 µM (inactive) | – | 61.7 µM (inactive) | 80.4 µM (inactive) | 70 µM (inactive) | 99.1 µM (inactive) | > 100 µM (inactive) | 39.3 µM (inactive) | > 100 µM (inactive) | 89.1 µM (inactive) | 50.6 µM (inactive) | 49.1 µM (inactive) | 46.2 µM (inactive) | – | 80 µM (inactive) | > 100 µM (inactive) | 23.6 µM (inactive) | 32.4 µM (inactive) | 54 µM (inactive) | > 100 µM (inactive) |
| O=S(=O)(c1ccc(/N=N/O)nc1)c1ccc2ccccc2c1 | > 100 µM (inactive) | 88.5 µM (inactive) | 29.3 µM (inactive) | 97.3 µM (inactive) | > 100 µM (inactive) | > 100 µM (inactive) | 54.8 µM (inactive) | > 100 µM (inactive) | – | > 100 µM (inactive) | 65.9 µM (inactive) | 32.6 µM (inactive) | > 100 µM (inactive) | > 100 µM (inactive) | 95.5 µM (inactive) | > 100 µM (inactive) | 98.4 µM (inactive) | 23.1 µM (inactive) | – | 26.5 µM (inactive) |
| Nc1nc(Cl)c2nnn(CC3CCC(CO)C3)c2n1 (configuration not stated) | > 100 µM (inactive) | > 100 µM (inactive) | > 100 µM (inactive) | > 100 µM (inactive) | > 100 µM (inactive) | > 100 µM (inactive) | – | > 100 µM (inactive) | > 100 µM (inactive) | > 100 µM (inactive) | – | > 100 µM (inactive) | – | > 100 µM (inactive) | > 100 µM (inactive) | > 100 µM (inactive) | > 100 µM (inactive) | > 100 µM (inactive) | > 100 µM (inactive) | – |
